In PubChem BioAssay (NCI):
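Grown in 96-well plates, cells were treated for 48 hours with each compound at five concentrations. Insufficient inhibition: endpoint recorded as highest concentration tested. GI50 = concentration required for 50% inhibition of growth. TGI marks complete inhibition of growth.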

How the values were obtained:
Assay in all cases: NCI anticancer screen, dose series, 48 h
DU-145 prostate = system: DU-145 prostate
OVCAR-3 ovarian = system: OVCAR-3 ovarian
COLO 205 colon = system: COLO 205 colon
SK-OV-3 ovarian = system: SK-OV-3 ovarian
NCI/ADR-RES ovarian = system: NCI/ADR-RES ovarian
NCI-H460 lung = system: NCI-H460 lung
IGROV1 ovarian = system: IGROV1 ovarian
SK-MEL-5 melanoma = system: SK-MEL-5 melanoma
RPMI-8226 leukemia = system: RPMI-8226 leukemia
HT29 colon = system: HT29 colon
NCI-H226 lung = system: NCI-H226 lung
BT-549 breast = system: BT-549 breast
M14 melanoma = system: M14 melanoma
SK-MEL-28 melanoma = system: SK-MEL-28 melanoma
SR leukemia = system: SR leukemia
HCC-2998 colon = system: HCC-2998 colon
RXF 393 renal = system: RXF 393 renal
EKVX NSCLC = system: EKVX NSCLC
SN12C renal = system: SN12C renal
LOX IMVI melanoma = system: LOX IMVI melanoma
UO-31 renal = system: UO-31 renal
MCF7 breast = system: MCF7 breast
MOLT-4 leukemia = system: MOLT-4 leukemia
HS 578T breast = system: HS 578T breast
NCI-H522 lung = system: NCI-H522 lung
SF-295 CNS = system: SF-295 CNS
HL-60(TB) leukemia = system: HL-60(TB) leukemia
MDA-MB-231 breast = system: MDA-MB-231 breast
SNB-19 CNS = system: SNB-19 CNS
SK-MEL-2 melanoma = system: SK-MEL-2 melanoma
OVCAR-8 ovarian = system: OVCAR-8 ovarian
U251 CNS = system: U251 CNS
SW-620 colon = system: SW-620 colon
OVCAR-5 ovarian = system: OVCAR-5 ovarian
T-47D breast = system: T-47D breast
UACC-62 melanoma = system: UACC-62 melanoma
A498 renal = system: A498 renal
OVCAR-4 ovarian = system: OVCAR-4 ovarian
UACC-257 melanoma = system: UACC-257 melanoma
SF-539 CNS = system: SF-539 CNS
HOP-92 NSCLC = system: HOP-92 NSCLC
A549 NSCLC = system: A549 NSCLC
786-0 renal = system: 786-0 renal
KM12 colon = system: KM12 colon
SNB-75 CNS = system: SNB-75 CNS
CAKI-1 renal = system: CAKI-1 renal
HCT-116 colon = system: HCT-116 colon
TK-10 renal = system: TK-10 renal
HCT-15 colon = system: HCT-15 colon
HOP-62 NSCLC = system: HOP-62 NSCLC
MDA-MB-435 = system: MDA-MB-435
K-562 leukemia = system: K-562 leukemia
ACHN renal = system: ACHN renal
MALME-3M melanoma = system: MALME-3M melanoma
PC-3 prostate = system: PC-3 prostate
SF-268 CNS = system: SF-268 CNS

N#Cc1nc(-c2ccccc2)oc1S(=O)(=O)N1CCN(CCc2ccccn2)CC1
GI50 (DU-145 prostate): 4.56 µM
TGI (DU-145 prostate): 22.3 µM
GI50 (OVCAR-3 ovarian): 1.67 µM
TGI (OVCAR-3 ovarian): 3.22 µM
GI50 (COLO 205 colon): 1.54 µM
TGI (COLO 205 colon): 3.02 µM
GI50 (SK-OV-3 ovarian): 30.4 µM
TGI (SK-OV-3 ovarian): > 100 µM
GI50 (NCI/ADR-RES ovarian): 19.3 µM
TGI (NCI/ADR-RES ovarian): 94.5 µM
GI50 (NCI-H460 lung): 12.3 µM
TGI (NCI-H460 lung): 32.7 µM
GI50 (IGROV1 ovarian): 15.1 µM
TGI (IGROV1 ovarian): 47.9 µM
GI50 (SK-MEL-5 melanoma): 16.7 µM
TGI (SK-MEL-5 melanoma): 32.4 µM
GI50 (RPMI-8226 leukemia): 2.75 µM
GI50 (HT29 colon): 1.72 µM
TGI (HT29 colon): 3.44 µM
GI50 (NCI-H226 lung): 2.58 µM
TGI (NCI-H226 lung): 7.78 µM
GI50 (BT-549 breast): 3.36 µM
TGI (BT-549 breast): 12.7 µM
GI50 (M14 melanoma): 2.29 µM
TGI (M14 melanoma): 9.51 µM
GI50 (SK-MEL-28 melanoma): 2.9 µM
TGI (SK-MEL-28 melanoma): 9.42 µM
GI50 (SR leukemia): 1.41 µM
TGI (SR leukemia): 5.19 µM
GI50 (HCC-2998 colon): 14.2 µM
TGI (HCC-2998 colon): 28.9 µM
GI50 (RXF 393 renal): 1.89 µM
TGI (RXF 393 renal): 3.74 µM
GI50 (EKVX NSCLC): 23.3 µM
TGI (EKVX NSCLC): 68.2 µM
GI50 (SN12C renal): 10.4 µM
TGI (SN12C renal): 24.2 µM
GI50 (LOX IMVI melanoma): 1.22 µM
TGI (LOX IMVI melanoma): 2.69 µM
GI50 (UO-31 renal): 2.64 µM
TGI (UO-31 renal): 9.81 µM
GI50 (MCF7 breast): 1.83 µM
TGI (MCF7 breast): 10.2 µM
GI50 (MOLT-4 leukemia): 2.16 µM
TGI (MOLT-4 leukemia): 8.35 µM
GI50 (HS 578T breast): 17.3 µM
TGI (HS 578T breast): 61.9 µM
GI50 (NCI-H522 lung): 1.04 µM
TGI (NCI-H522 lung): 2.36 µM
GI50 (SF-295 CNS): 29.2 µM
TGI (SF-295 CNS): 87.2 µM
GI50 (HL-60(TB) leukemia): 1.55 µM
TGI (HL-60(TB) leukemia): 4.85 µM
GI50 (MDA-MB-231 breast): 15.5 µM
TGI (MDA-MB-231 breast): 34.4 µM
GI50 (SNB-19 CNS): 20.5 µM
TGI (SNB-19 CNS): 57.9 µM
GI50 (SK-MEL-2 melanoma): 12.4 µM
TGI (SK-MEL-2 melanoma): 29.2 µM
GI50 (OVCAR-8 ovarian): 14 µM
TGI (OVCAR-8 ovarian): 49.9 µM
GI50 (U251 CNS): 13.5 µM
TGI (U251 CNS): 27 µM
GI50 (SW-620 colon): 0.985 µM
TGI (SW-620 colon): 2.7 µM
GI50 (OVCAR-5 ovarian): 12.5 µM
TGI (OVCAR-5 ovarian): 26 µM
GI50 (T-47D breast): 1.87 µM
TGI (T-47D breast): 4.41 µM
GI50 (UACC-62 melanoma): 9.85 µM
TGI (UACC-62 melanoma): 23.2 µM
GI50 (A498 renal): > 100 µM
TGI (A498 renal): > 100 µM
GI50 (OVCAR-4 ovarian): 2.91 µM
TGI (OVCAR-4 ovarian): 9.94 µM
GI50 (UACC-257 melanoma): 4.58 µM
TGI (UACC-257 melanoma): 17.5 µM
GI50 (SF-539 CNS): 3.99 µM
TGI (SF-539 CNS): 13.7 µM
GI50 (HOP-92 NSCLC): 2.23 µM
TGI (HOP-92 NSCLC): 6.92 µM
GI50 (A549 NSCLC): 24.6 µM
TGI (A549 NSCLC): > 100 µM
GI50 (786-0 renal): 2.21 µM
TGI (786-0 renal): 6.09 µM
GI50 (KM12 colon): 13.5 µM
TGI (KM12 colon): 36.4 µM
GI50 (SNB-75 CNS): 12.3 µM
TGI (SNB-75 CNS): 24.8 µM
GI50 (CAKI-1 renal): 1.18 µM
TGI (CAKI-1 renal): 2.41 µM
GI50 (HCT-116 colon): 1.28 µM
TGI (HCT-116 colon): 2.61 µM
GI50 (TK-10 renal): 7.32 µM
TGI (TK-10 renal): 19.7 µM
GI50 (HCT-15 colon): 1.86 µM
TGI (HCT-15 colon): 5.87 µM
GI50 (HOP-62 NSCLC): 20.8 µM
TGI (HOP-62 NSCLC): 58.9 µM
GI50 (MDA-MB-435): 4.08 µM
TGI (MDA-MB-435): 16.7 µM
GI50 (K-562 leukemia): 0.562 µM
TGI (K-562 leukemia): 7.78 µM
GI50 (ACHN renal): 1.67 µM
TGI (ACHN renal): 3.09 µM
GI50 (MALME-3M melanoma): 1.87 µM
TGI (MALME-3M melanoma): 3.69 µM
GI50 (PC-3 prostate): 12.3 µM
TGI (PC-3 prostate): 26.7 µM
GI50 (SF-268 CNS): 10.5 µM
TGI (SF-268 CNS): 35.9 µM
